Reference: PubChem BioAssay AID1259407 (Chemical Carcinogenesis Research Information System (CCRIS), 2018)
Active and inactive are the calls of the source. No rule for the calls is given here.

Tested on: CCRIS mutagenicity, Ames/micronucleus/aberration tests
Assay: CCRIS mutagenicity studies
[1] = Test System: AMES SALMONELLA TYPHIMURIUM, Strain/Indicator: TA100, Metabolic Activation: NONE, Method: PREINCUBATION
[2] = Test System: AMES SALMONELLA TYPHIMURIUM, Strain/Indicator: TA100, Metabolic Activation: NONE, Method: STANDARD PLATE
[3] = Test System: AMES SALMONELLA TYPHIMURIUM, Strain/Indicator: TA97, Metabolic Activation: HAMSTER, LIVER, S-9, AROCLOR 1254 (10%), Method: PREINCUBATION
[4] = Test System: AMES SALMONELLA TYPHIMURIUM, Strain/Indicator: TA97, Metabolic Activation: NONE, Method: PREINCUBATION
[5] = Test System: AMES SALMONELLA TYPHIMURIUM, Strain/Indicator: TA97, Metabolic Activation: RAT, LIVER, S-9, AROCLOR 1254 (10%), Method: PREINCUBATION
[6] = Test System: AMES SALMONELLA TYPHIMURIUM, Strain/Indicator: TA98, Metabolic Activation: HAMSTER, LIVER, S-9, AROCLOR 1254 (10%), Method: PREINCUBATION
[7] = Test System: AMES SALMONELLA TYPHIMURIUM, Strain/Indicator: TA98, Metabolic Activation: NONE, Method: PREINCUBATION
[8] = Test System: AMES SALMONELLA TYPHIMURIUM, Strain/Indicator: TA98, Metabolic Activation: RAT, LIVER, S-9, AROCLOR 1254 (10%), Method: PREINCUBATION
[9] = Test System: AMES SALMONELLA TYPHIMURIUM, Strain/Indicator: TA100, Metabolic Activation: HAMSTER, LIVER, S-9, AROCLOR 1254 (10%), Method: PREINCUBATION
[10] = Test System: AMES SALMONELLA TYPHIMURIUM, Strain/Indicator: TA100, Metabolic Activation: RAT, LIVER, S-9, AROCLOR 1254 (10%), Method: PREINCUBATION
[11] = Test System: AMES SALMONELLA TYPHIMURIUM, Strain/Indicator: TA1535, Metabolic Activation: HAMSTER, LIVER, S-9, AROCLOR 1254 (10%), Method: PREINCUBATION
[12] = Test System: AMES SALMONELLA TYPHIMURIUM, Strain/Indicator: TA1535, Metabolic Activation: NONE, Method: PREINCUBATION
[13] = Test System: AMES SALMONELLA TYPHIMURIUM, Strain/Indicator: TA1535, Metabolic Activation: RAT, LIVER, S-9, AROCLOR 1254 (10%), Method: PREINCUBATION

Compound: CC1=C2C(=CO[C@H](C)[C@H]2C)C(=O)C(C(=O)O)=C1O
- mutagenic call (End Point: In vivo chromosomal aberrations, Test System: Bone marrow cells, Species: Mouse, Strain/Sex: Balb/C / Male, Route: Intraperitoneal): active; positive (structural changes)
- mutagenic call (Test System: AMES SALMONELLA TYPHIMURIUM, Strain/Indicator: TA97, Metabolic Activation: NONE, Method: STANDARD PLATE): inactive; negative
- mutagenic call (Test System: AMES SALMONELLA TYPHIMURIUM, Strain/Indicator: TA97, Metabolic Activation: RAT LIVER S-9, AROCLOR 1254, Method: STANDARD PLATE): inactive; negative
- mutagenic call (Test System: AMES SALMONELLA TYPHIMURIUM, Strain/Indicator: TA98, Metabolic Activation: NONE, Method: STANDARD PLATE): inactive; negative
- mutagenic call (Test System: AMES SALMONELLA TYPHIMURIUM, Strain/Indicator: TA98, Metabolic Activation: RAT LIVER S-9, AROCLOR 1254, Method: STANDARD PLATE): inactive; negative
- mutagenic call [1]: inactive; negative
- mutagenic call [2]: inactive; negative
- mutagenic call (Test System: AMES SALMONELLA TYPHIMURIUM, Strain/Indicator: TA100, Metabolic Activation: RAT LIVER S-9, AROCLOR 1254, Method: STANDARD PLATE): inactive; negative
- mutagenic call (Test System: AMES SALMONELLA TYPHIMURIUM, Strain/Indicator: TA100, Metabolic Activation: RAT, LIVER, S-9, PHENOBARBITAL, Method: PREINCUBATION): inactive; negative
- mutagenic call (Test System: AMES SALMONELLA TYPHIMURIUM, Strain/Indicator: TA102, Metabolic Activation: NONE, Method: STANDARD PLATE): inactive; negative
- mutagenic call (Test System: AMES SALMONELLA TYPHIMURIUM, Strain/Indicator: TA102, Metabolic Activation: RAT, LIVER, S-9, AROCLOR 1254, Method: STANDARD PLATE): inactive; negative
- mutagenic call (Test System: AMES SALMONELLA TYPHIMURIUM, Strain/Indicator: TA1535, Metabolic Activation: NONE, Method: STANDARD PLATE): inactive; negative
- mutagenic call (Test System: AMES SALMONELLA TYPHIMURIUM, Strain/Indicator: TA1535, Metabolic Activation: RAT LIVER S-9, AROCLOR 1254, Method: STANDARD PLATE): inactive; negative
- mutagenic call (Test System: AMES SALMONELLA TYPHIMURIUM, Strain/Indicator: TA1537, Metabolic Activation: NONE, Method: STANDARD PLATE): inactive; negative
- mutagenic call (Test System: AMES SALMONELLA TYPHIMURIUM, Strain/Indicator: TA1537, Metabolic Activation: RAT LIVER S-9, AROCLOR 1254, Method: STANDARD PLATE): inactive; negative

Compound: CC1(C)CC(C(=O)NC(CO)C(O)CO)C(C)(C)N1O (centres undefined)
- mutagenic call (Test System: CHO, Strain/Indicator: CHO/6-THIOGUANINE, Metabolic Activation: NONE, Method: STANDARD PLATE): inactive; negative
- mutagenic call (Test System: CHO, Strain/Indicator: CHO/6-THIOGUANINE, Metabolic Activation: RAT, LIVER, S-9, AROCLOR 1254, Method: STANDARD PLATE): inactive; negative
- mutagenic call (Test System: CHO, Strain/Indicator: CHO/OUABAIN, Metabolic Activation: NONE, Method: STANDARD PLATE): inactive; negative
- mutagenic call (Test System: CHO, Strain/Indicator: CHO/OUABAIN, Metabolic Activation: RAT, LIVER, S-9, AROCLOR 1254, Method: STANDARD PLATE): inactive; negative

Compound: Cc1cccc(C(=O)ON(OCc2ccccc2)C(=O)c2ccccc2)c1
- mutagenic call [2]: active; positive
- mutagenic call (Test System: AMES SALMONELLA TYPHIMURIUM, Strain/Indicator: TA100, Metabolic Activation: RAT, S-9, AROCLOR, Method: STANDARD PLATE): active; positive

Compound: O=[N+]([O-])c1cccc2c1-c1ccc3ccc4cccc5cc-2c1c3c45
- mutagenic call (Test System: AMES SALMONELLA TYPHIMURIUM, Strain/Indicator: TA98, Metabolic Activation: RAT, LIVER, S-9, AROCLOR 1254, Method: PREINCUBATION): active; positive
- mutagenic call (Test System: AMES SALMONELLA TYPHIMURIUM, Strain/Indicator: TA100, Metabolic Activation: RAT, LIVER, S-9, AROCLOR 1254, Method: PREINCUBATION): active; positive

Compound: Clc1cccc(C2CO2)c1 (centres undefined)
- mutagenic call (Test System: E. COLI, Strain/Indicator: WP2 UVRA, Metabolic Activation: NONE, Method: STANDARD PLATE): active; positive

Compound: CN(C)c1cccc(O)c1
- mutagenic call [3]: active; positive
- mutagenic call [4]: inactive; negative
- mutagenic call [5]: active; positive
- mutagenic call [6]: active; positive
- mutagenic call [7]: inactive; negative
- mutagenic call [8]: active; positive
- mutagenic call [9]: active; positive
- mutagenic call [1]: inactive; negative
- mutagenic call [10]: active; positive
- mutagenic call [11]: inactive; negative
- mutagenic call [12]: inactive; negative
- mutagenic call [13]: inactive; negative

Compound: N#CCc1ccccc1[N+](=O)[O-]
- mutagenic call [3]: inactive; negative
- mutagenic call [4]: active; positive
- mutagenic call [5]: inactive; negative
- mutagenic call [6]: inactive; negative
- mutagenic call [7]: active; positive
- mutagenic call [8]: inactive; negative
- mutagenic call [9]: active; positive
- mutagenic call [1]: active; positive
- mutagenic call [10]: active; positive
- mutagenic call [11]: active; positive
- mutagenic call [12]: inactive; negative
- mutagenic call [13]: active; positive

Compound: CC1CN1P(=O)(N1CC1C)N1CC1C (centres undefined)
- mutagenic call (Test System: AMES SALMONELLA TYPHIMURIUM, Strain/Indicator: G46, Metabolic Activation: HOST MEDIATED, Method: STANDARD PLATE): active; positive

Compound: O=[N+]([O-])c1ccccc1SSC(Cl)=C(Cl)Cl
- mutagenic call (Test System: AMES SALMONELLA TYPHIMURIUM, Strain/Indicator: TA100(DNP6), Metabolic Activation: NONE, Method: PREINCUBATION): active; positive
- mutagenic call (Test System: AMES SALMONELLA TYPHIMURIUM, Strain/Indicator: TA100(NR), Metabolic Activation: NONE, Method: PREINCUBATION): active; positive

Compound: Nc1cc(Cl)nc(C(=O)O)c1Cl
- mutagenic call (End Point: In vitro chromosomal aberrations, Test System: Primary rat lymphocytes, Metabolic Activation: Rodent S-9): inactive; negative
- mutagenic call (Test System: Ames Salmonella typhimurium, Strain/Indicator: TA98, Metabolic Activation: None, Method: Preincubation): inactive; negative; purity 94.5%
- mutagenic call (Test System: Ames Salmonella typhimurium, Strain/Indicator: TA98, Metabolic Activation: Rat, Liver, S-9, Aroclor 1254, Method: Preincubation): inactive; negative; purity 94.5%
- mutagenic call (Test System: Ames Salmonella typhimurium, Strain/Indicator: TA100, Metabolic Activation: None, Method: Preincubation): inactive; negative; purity 94.5%
- mutagenic call (Test System: Ames Salmonella typhimurium, Strain/Indicator: TA100, Metabolic Activation: Rat, Liver, S-9, Aroclor 1254, Method: Preincubation): inactive; negative; purity 94.5%
- mutagenic call (Test System: Ames Salmonella typhimurium, Strain/Indicator: TA1535, Metabolic Activation: None, Method: Preincubation): inactive; negative; purity 94.5%
- mutagenic call (Test System: Ames Salmonella typhimurium, Strain/Indicator: TA1535, Metabolic Activation: Rat, Liver, S-9, Aroclor 1254, Method: Preincubation): inactive; negative; purity 94.5%
- mutagenic call (Test System: Ames Salmonella typhimurium, Strain/Indicator: TA1537, Metabolic Activation: None, Method: Preincubation): inactive; negative; purity 94.5%
- mutagenic call (Test System: Ames Salmonella typhimurium, Strain/Indicator: TA1537, Metabolic Activation: Rat, Liver, S-9, Aroclor 1254, Method: Preincubation): inactive; negative; purity 94.5%
- mutagenic call (Test System: Chinese hamster ovary cells, Strain/Indicator: CHO-K1-BH4/HGPRT, Metabolic Activation: None, Method: Forward mutation assay): inactive; negative
- mutagenic call (Test System: Chinese hamster ovary cells, Strain/Indicator: CHO-K1-BH4/HGPRT, Metabolic Activation: Rat, Liver, S-9, Aroclor 1254, Method: Forward mutation assay): inactive; negative; purity 94.5%
- mutagenic call (Test System: E. coli, Strain/Indicator: WP2 UVR A, Metabolic Activation: None, Method: Preincubation): inactive; negative
- mutagenic call (Test System: E. coli, Strain/Indicator: WP2 UVRA, Metabolic Activation: Rat, Liver, S-9, Aroclor 1254, Method: Preincubation): inactive; negative
